# Marks after values point to notes of the source that are not given here.
# What was measured:
# [1] = test system: S. pneumoniae 22425, a penicillin and macrolide resistant clinical isolate; test: Combination time-kill studies; format: cell-based; conditions: for effect of compound G on the bactericidal activity (kill kinetics, kill extent) of the antibiotic: combination with compound G at 0.03 μg/ml and 1 μg/ml, S. pneumoniae
# Experimental: Combination time-kill studies were performed as follows. Bacterial inocula were prepared as for MIC determination according to CLSI guidelines. Log phase cells (˜10^6 CFU/ml) were inoculated into 24 well plates and incubated with the indicated concentrations of compound G and commercial antibiotics for 24 hours at 35° C. At indicated time points samples were removed for determination of viable CFU counts. Results are plotted as log CFU/ml vs. time.
# S. pneumoniae 22257 = test: Combination Time-kill kinetics; format: cell-based; conditions: antibiotic alone at 4 × MIC (Azithromycin 0.12 ug/ml, Cefuroxime 8 ug/ml)
# Experimental: (§1) As used herein, “synergy” refers to the in vitro effect of administration of a combination of an antibacterial agent such as a Fab I inhibiter, and antiinfective agent such that (1) the fractional inhibitory concentration (FIC) is less than or equal to 0.5 in an FIC assay described herein; or (2) there is at least a 100-fold (2 log10) increase in killing at 24 hours for the combination as compared with the bioactive agent alone in a time kill curve assay as described herein. An FIC of ≦0.5 is evidence of synergy. An additive response has an FIC value of >0.5 and less than or equal to 1, while an indifferent response has an FIC value of >1 and ≦2. An additive effect may still indicate that the combination of bioactive agent and cationic peptide are therapeutically useful.
# S. pneumoniae 22425 = test: Combination Time-kill kinetics; format: cell-based; conditions: Gatifloxacin alone, 4 × MIC (2 ug/ml)
# Experimental: as §1
# E. faecalis A6221420 = test: Combination Time-kill kinetics; format: cell-based; conditions: Meropenem alone, 4 × MIC (16 ug/ml)
# Experimental: as §1
# S. aureus strains = test: Checkerboard combination studies of compound G and commercial antibiotics (FIG. 6); format: cell-based; conditions: in combination with compound G, S. aureus strains tested
# Experimental: Checkerboard experiments were performed and analyzed according to standard procedures as outlined below.
molecule,measurement,setting,value
"CC[C@H]1OC(=O)[C@H](C)[C@@H](O[C@H]2C[C@@](C)(OC)[C@@H](O)[C@H](C)O2)[C@H](C)[C@@H](O[C@@H]2O[C@H](C)C[C@H](N(C)C)[C@H]2O)[C@](C)(O)C[C@@H](C)CN(C)[C@H](C)[C@@H](O)[C@]1(C)O [Azithromycin, reference compound]","effect of compound G on the bactericidal activity (kill kinetics, kill extent) of the antibiotic",[1],no effect
same,logCFU/ml at Time (hr): 0,S. pneumoniae 22257,6.35 logCFU/ml
same,logCFU/ml at Time (hr): 3,S. pneumoniae 22257,4.53 logCFU/ml
same,logCFU/ml at Time (hr): 6,S. pneumoniae 22257,3.39 logCFU/ml
same,logCFU/ml at Time (hr): 8,S. pneumoniae 22257,≤ 1.70* logCFU/ml
same,logCFU/ml at Time (hr): 24,S. pneumoniae 22257,≤ 1.70* logCFU/ml
same,ΔlogCFU/ml (24-0 hr),S. pneumoniae 22257,−4.65 logCFU/ml
"CO/N=C(\C(=O)N[C@@H]1C(=O)N2C(C(=O)O)=C(COC(N)=O)CS[C@H]12)c1ccco1 [Cefuroxime, reference compound]","effect of compound G on the bactericidal activity (kill kinetics, kill extent) of the antibiotic",[1],no effect
same,logCFU/ml at Time (hr): 0,S. pneumoniae 22257,6.39 logCFU/ml
same,logCFU/ml at Time (hr): 3,S. pneumoniae 22257,1.92 logCFU/ml
same,logCFU/ml at Time (hr): 6,S. pneumoniae 22257,1.70 logCFU/ml
same,logCFU/ml at Time (hr): 8,S. pneumoniae 22257,≤ 1.70* logCFU/ml
same,logCFU/ml at Time (hr): 24,S. pneumoniae 22257,≤ 1.70* logCFU/ml
same,ΔlogCFU/ml (24-0 hr),S. pneumoniae 22257,−4.69 logCFU/ml
"CN(Cc1cc2ccccc2n1C)C(=O)/C=C/c1ccc(N2C(=O)CCC2=O)nc1 [Example 213, (E)-3-[6-(2,5-Dioxo-pyrrolidin-1-yl)pyridin-3-yl]-N-methyl-N-(1-methyl-1H-indol-2-ylmethyl)acrylamide]",melting point,,185 to 187 °C
"CN(Cc1cc2ccccc2n1C)C(=O)/C=C/c1ccc(NC(=O)CCC(N)=O)nc1 [Example 214, (E)-N-(5-{2-[Methyl-(1-methyl-1H-indol-2-ylmethyl)carbamoyl]vinyl}pyridin-2-yl)succinamide]",melting point,,225 to 227 °C
"CN1CCN(C(=O)CCC(=O)Nc2ccc(/C=C/C(=O)N(C)Cc3cc4ccccc4n3C)cn2)CC1 [Example 215, (E)-N-(5-{2-[Methyl-(1-methyl-1H-indol-2-Ylmethyl)carbamoyl]vinyl}pyridin-2-yl)-4-(4-methyl-piperazin-1-yl)-4-oxo-butyramide]",melting point,,145 to 147 °C (dec.)
"CN(Cc1cc2ccccc2n1C)C(=O)/C=C/c1ccc(NC(=O)CCC(=O)N2CCOCC2)nc1 [Example 216, (E)-N-(5-{2-[Methyl-(1-methyl-1H-indol-2-ylmethyl)carbamoyl]vinyl}pyridin-2-yl)-4-morpholin-4-yl-4-oxo-butyramide]",melting point,,206 to 209 °C (dec.)
"COc1c(N2CCNC(C)C2)c(F)cc2c(=O)c(C(=O)O)cn(C3CC3)c12 (stereo not drawn) [Gatifloxacin, reference compound]","bactericidal activity, log reduction in CFU at 24 hours","[1]; antibiotic alone, S. pneumoniae 22425, 24 hours, FIG. 8",−3.5 log
same,"effect of compound G on the bactericidal activity (kill kinetics, kill extent) of the antibiotic",[1],no effect
same,logCFU/ml at Time (hr): 0,S. pneumoniae 22425,5.18 logCFU/ml
same,logCFU/ml at Time (hr): 2,S. pneumoniae 22425,4.26 logCFU/ml
same,logCFU/ml at Time (hr): 6,S. pneumoniae 22425,2.77 logCFU/ml
same,logCFU/ml at Time (hr): 24,S. pneumoniae 22425,≤ 1.70* logCFU/ml
same,ΔlogCFU/ml (24-0 hr),S. pneumoniae 22425,−3.48 logCFU/ml
"C[C@@H](O)[C@H]1C(=O)N2C(C(=O)O)=C(S[C@@H]3CN[C@H](C(=O)N(C)C)C3)[C@H](C)[C@H]12 [Meropenem, reference compound]",logCFU/ml at Time (hr): 0,E. faecalis A6221420,5.12 logCFU/ml
same,logCFU/ml at Time (hr): 2,E. faecalis A6221420,4.31 logCFU/ml
same,logCFU/ml at Time (hr): 4,E. faecalis A6221420,3.41 logCFU/ml
same,logCFU/ml at Time (hr): 8,E. faecalis A6221420,2.67 logCFU/ml
same,logCFU/ml at Time (hr): 24,E. faecalis A6221420,≤ 1.70* logCFU/ml
same,ΔlogCFU/ml (24-0 hr),E. faecalis A6221420,−3.43 logCFU/ml
CC(=O)NC[C@H]1CN(c2ccc(N3CCOCC3)c(F)c2)C(=O)O1 [linezolid],combination effect with compound G (synergistic / additive / antagonism),S. aureus strains,synergistic effect
Gentamicin,combination effect with compound G (synergistic / additive / antagonism),S. aureus strains,synergistic effect

# Reference: patent publication US7879872B2, “Compositions comprising multiple bioactive agents, and methods of using the same” (Affinium Pharmaceuticals, Inc., priority 2003, dated 2011)
